Laboratory results reported in US20020183256A1, “Cytostatic-integrin conjugates having specifically cleavable linking units” (priority 2000, published 2002).
Like-named read-outs stand apart in the source and are kept apart here. *1 amine or outer side, *2 acyl side, *3 side chain or, on linkers, in order; H or OH if unused. Where a SMILES comes first, the peptide text is derived from it. [ ]: non-standard residue; d: D form. The star is where a group is joined. Camptothecin(20R,20-O) = CC[C@]1(O*)C(=O)OCc2c1cc1n(c2=O)Cc2cc3ccccc3nc2-1; X2 = CCCNC(=O)Nc1cccc(S(=O)(=O)Nc2cccc(C(CC(=O)O)NC(=O)Nc3ccc(N*)cc3)c2)c1; CO = O=C([*:1])[*:2]; GABA = NCCCC(=O)O

Experiments:
[1] = In-vivo inhibition of tumour growth using a nude mouse model; design: species or system athymic nude mice (NMRI nu/nu strain); settings: NMRI nu/nu, mouse, in vivo; intravenously or intraperitoneally day 1-3 and day 15-17; nude mice; read-out: MTD (dose marked MTD)
Text: (§1) In all in-vivo experiments for investigating the inhibition of tumour growth, athymic nude mice (NMRI nu/nu strain) were used. The tumour was developed by serial passage in nude mice. The human origin of the tumour was confirmed by isoenzymatic and immunohistochemical methods.
(§2) The tumour was implanted subcutaneously in both flanks of nu/nu nude mice 6 to 8 weeks old. The treatment was started, depending on the doubling time, as soon as the tumours had reached a diameter of 5-7 mm. The mice were assigned to the treatment group or the control group (5 mice per group having 8-10 assessable tumours) by randomization. The individual tumours of the control group all grew progressively.
(§3) The size of the tumours was measured in two dimensions by means of a slide gauge. The tumour volume, which correlated well with the cell count, was then used for all assessments. The volume was calculated according to the formula “length×breadth×breadth/2” ([a×b^2]/2, a and b represent two diameters arranged at right angles).
(§4) The values of the relative tumour volume (RTV) were calculated for each individual tumour by dividing the tumour size on day X with the tumour size on day 0 (at the time of randomization). The average values of the RTV were then used for the further assessment.
(§5) The inhibition of the increase of the tumour volume (tumour volume of the test group/control group, T/C, in per cent) was the final measured value.
(§6) The compounds can be administered with a daily or an intermittent therapy schedule through a couple of days either by intraperitoneal, intravenious, oral or subcutaneous route.
(§7) The compounds are dissolved in PEG400/water 2:1 and administered intravenously or intraperitoneally from day 1-3 and day 15-17.

[2] = tested on: melanoma xenograft model (MEXF 989); test: as above; design: species or system athymic nude mice (NMRI nu/nu strain); settings: for optimal T/C in % / lethality: intravenously or intraperitoneally day 1-3 and day 15-17; for optimal T/C in %: MEXF 989; for lethality: MEXF 989 nude mice; for inhibition of the tumor growth (in words): subcutaneously growing melanoma xenograft MEXF 989
Text: as §1, §2, §3, §4, §5, §6, §7

αvβ3 receptor = target: T1, αvβ3 receptor (Homo sapiens, UniProt P05106+P06756); test: αvβ3 binding test (echistatin displacement, WGA SPA beads); settings: αvβ3 from human A375 cells
T1 construct: αvβ3 from human A375 cells was purified; endogenous in cells; host or cells: human A375 cells (receptor purified from the cells, analogous to Wong et al. 1996)
T1 sequence (P06756 31-889 limits assumed): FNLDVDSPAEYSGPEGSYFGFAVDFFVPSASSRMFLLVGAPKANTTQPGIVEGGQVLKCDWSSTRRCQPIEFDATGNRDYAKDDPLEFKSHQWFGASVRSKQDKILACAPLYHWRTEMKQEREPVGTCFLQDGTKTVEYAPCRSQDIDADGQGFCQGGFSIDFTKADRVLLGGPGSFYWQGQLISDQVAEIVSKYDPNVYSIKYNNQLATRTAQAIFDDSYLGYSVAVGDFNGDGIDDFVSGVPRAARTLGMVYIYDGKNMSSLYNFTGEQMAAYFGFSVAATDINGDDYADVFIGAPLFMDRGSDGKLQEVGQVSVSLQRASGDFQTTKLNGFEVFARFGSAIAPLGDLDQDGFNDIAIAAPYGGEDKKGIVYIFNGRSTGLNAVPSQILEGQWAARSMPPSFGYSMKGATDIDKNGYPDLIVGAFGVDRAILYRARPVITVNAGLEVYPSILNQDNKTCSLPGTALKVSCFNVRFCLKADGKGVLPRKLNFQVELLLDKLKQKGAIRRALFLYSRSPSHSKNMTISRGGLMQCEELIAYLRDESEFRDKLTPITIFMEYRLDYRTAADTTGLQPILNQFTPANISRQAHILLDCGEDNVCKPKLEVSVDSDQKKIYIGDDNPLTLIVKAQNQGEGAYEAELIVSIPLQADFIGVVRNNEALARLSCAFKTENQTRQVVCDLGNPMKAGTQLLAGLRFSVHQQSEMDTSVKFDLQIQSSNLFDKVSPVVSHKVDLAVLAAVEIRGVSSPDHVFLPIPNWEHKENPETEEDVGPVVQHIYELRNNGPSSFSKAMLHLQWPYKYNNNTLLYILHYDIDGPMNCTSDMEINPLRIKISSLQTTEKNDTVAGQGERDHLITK
T1 sequence (P06756 891-1048 partner limits assumed): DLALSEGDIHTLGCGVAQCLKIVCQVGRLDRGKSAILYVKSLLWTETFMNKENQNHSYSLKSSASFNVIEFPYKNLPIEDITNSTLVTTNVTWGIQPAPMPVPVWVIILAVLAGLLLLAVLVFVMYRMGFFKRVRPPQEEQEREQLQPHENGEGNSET
T1 sequence (P05106 27-788): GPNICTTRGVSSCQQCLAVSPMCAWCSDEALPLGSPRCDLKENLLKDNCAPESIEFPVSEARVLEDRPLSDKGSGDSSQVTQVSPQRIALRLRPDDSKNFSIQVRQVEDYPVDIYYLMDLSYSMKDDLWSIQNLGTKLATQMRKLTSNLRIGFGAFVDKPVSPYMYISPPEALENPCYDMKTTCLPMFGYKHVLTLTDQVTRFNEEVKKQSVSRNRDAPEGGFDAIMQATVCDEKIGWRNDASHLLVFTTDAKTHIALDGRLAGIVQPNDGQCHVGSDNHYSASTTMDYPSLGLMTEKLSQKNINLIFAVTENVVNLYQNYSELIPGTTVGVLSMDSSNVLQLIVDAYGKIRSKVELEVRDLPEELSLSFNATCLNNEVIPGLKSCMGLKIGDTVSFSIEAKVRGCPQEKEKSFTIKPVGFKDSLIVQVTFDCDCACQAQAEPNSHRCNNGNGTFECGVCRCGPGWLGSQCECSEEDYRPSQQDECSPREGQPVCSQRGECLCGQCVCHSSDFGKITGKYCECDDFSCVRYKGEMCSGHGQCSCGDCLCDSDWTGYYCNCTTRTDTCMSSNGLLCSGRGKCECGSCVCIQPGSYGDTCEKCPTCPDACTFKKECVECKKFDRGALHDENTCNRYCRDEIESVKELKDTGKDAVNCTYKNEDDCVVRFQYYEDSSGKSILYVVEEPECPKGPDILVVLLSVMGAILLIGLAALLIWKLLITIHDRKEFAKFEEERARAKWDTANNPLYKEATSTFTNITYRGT
Method: αvβ3 from human A375 cells was purified analogously to a procedure which was described by Wong et al. (Molecular Pharmacology, 50, 529-537 (1996)). In each case, 10 μl of αvβ3 (5 ng) in TBS pH 7.6, 2 mM CaCl2, 1 mM MgCl2, 1% n-octylglucopyranoside (Sigma); 10 μl of test substance in TBS pH 7.6, 0.1% DMSO and 45 μl of TBS pH 7.6, 2 mM CaCl2, 1 mM MgCl2, 1 mM MnCl2 were incubated at room temperature for 1 h. In each case, 25 μl of WGA SPA beads (Amersham, 4 mg/ml) and 10 μl of echistatin (0.1 μCi, Amersham, chloramine-T labelled) were then added. After 16 hours at room temperature, the samples were measured in a scintillation measuring apparatus (Wallac 1450).

B16F10 = test: Growth inhibition test (MTT), cytotoxic action on tumour cell lines; assay type: cell-based, mouse
Method: (§8) The human large intestine cell lines SW 480 and HT29 (ATCC No. CCL 228 and HTB38 and the mouse melanoma cell line B16F10 (CRL 6475) were grown to confluence in Roux dishes in RPMI 1640 medium with addition of 10% FCS. They were then trypsinized and taken up in RPMI plus 10% FCS to a cell count of 50,000 cells or, for B16F10, 20,000 cells per ml. 100 μl of cell suspension/well were added to a 96 microwell plate and incubated at 37° C. for 1 day in a CO2 incubator. A further 100 μl of RPMI medium and 1 μl of DMSO were then added with the test substances. The growth was checked after day 6. For this, 25 μl of MTT solution (3-(4,5-dimethylthiazol-2-yl)-2,5-diphenyltetrazolium bromide) was added to each well at a starting concentration of 5 mg/ml of H2O. The plate was incubated at 37° C. for 5 hours in a CO2 incubator. The medium was then aspirated and 100 μl of i-propanol/well were added. After shaking with 100 μl of H2O for 30 min, the extinction was measured at 595 nm using a Multiplate Reader (BIO-RAD) 3550-UV).
(§9) The cytostatic action is indicated in Table 2 as an IC50 value, in each case for the individual cell lines.

MMP-2 = target: T2, MMP-2 (Homo sapiens, UniProt P08253); test: Cleavage of conjugates by MMP-2 in buffer (HPLC); assay type: biochemical; settings: after 6 h incubation with MMP-2; buffer pH 7.5
T2 construct: purchased Calbiochem
T2 sequence (P08253 110-660): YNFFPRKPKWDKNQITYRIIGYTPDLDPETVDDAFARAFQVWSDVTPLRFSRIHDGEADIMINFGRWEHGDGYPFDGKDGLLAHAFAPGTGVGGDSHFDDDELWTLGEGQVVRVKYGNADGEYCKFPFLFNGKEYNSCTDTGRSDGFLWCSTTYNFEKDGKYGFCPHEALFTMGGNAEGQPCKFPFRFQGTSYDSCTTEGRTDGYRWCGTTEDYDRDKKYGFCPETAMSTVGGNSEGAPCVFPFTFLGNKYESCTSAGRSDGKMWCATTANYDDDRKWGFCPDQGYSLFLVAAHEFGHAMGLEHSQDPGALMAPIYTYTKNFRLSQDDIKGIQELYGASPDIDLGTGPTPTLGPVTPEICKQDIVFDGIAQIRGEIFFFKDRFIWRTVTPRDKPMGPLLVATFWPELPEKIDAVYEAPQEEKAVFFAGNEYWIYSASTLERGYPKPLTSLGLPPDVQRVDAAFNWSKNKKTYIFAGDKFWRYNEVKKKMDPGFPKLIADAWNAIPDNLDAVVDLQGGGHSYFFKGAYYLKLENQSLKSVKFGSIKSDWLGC
Method: 2.5 μl MMP-2 (Calbiochem) with a specific activity of 60 μU/μl are incubated with 10 nM of the conjugates exemplified in the example series 1-25 in 1 ml of a medium consisting of 50 mM Tris-HCl pH 7.5, 0.2 M NaCl, 10 mM CaCL2*2H2O and 0.05% Brij 35. The enzyme mediated cleavage of the conjugates is detected by HPLC analysis using an RP18 (5 μM) column with 70% HClO4/water (0.4% v/v) as eluent A and acentonitrile as eluent B (UV detection at […]). The efficiency of the cleavage is assessed by comparing the peak areas of the intact conjugate (starting material) and the cleavage product (tripeptide conjugate of camptothecin) after 6 h and 24 h incubation (cf. Table 5).

HT29 = test: Growth inhibition test (MTT), cytotoxic action on tumour cell lines; assay type: cell-based, human
Method: as §8, §9

SW 480 = test: as above; assay type: cell-based, human
Method: as §8, §9

[3] = read-out: IC50 values of the binding to the αvβ3 receptor
[4] = IC50 values of the binding to the αvβ3 receptor
[5] = B16F10, MTT after day 6, read-out: IC50 values of the cytotoxic action on tumour cell lines, B16F10
[6] = HT29, MTT after day 6, read-out: IC50 values of the cytotoxic action on tumour cell lines, HT29
[7] = SW480, MTT after day 6, read-out: IC50 values of the cytotoxic action on tumour cell lines, SW480

SMILES: CCCNC(=O)Nc1cccc(S(=O)(=O)Nc2cccc(C(CC(=O)O)NC(=O)Nc3ccc(NC(=S)N4CCC[C@@H]4C(=O)N[C@@H](CC(C)C)C(=O)NCC(=O)N[C@H](CC(C)C)C(=O)N[C@H](CC(N)=O)C(=O)N[C@@H](C(=O)O[C@@]4(CC)C(=O)OCc5c4cc4n(c5=O)Cc5cc6ccccc6nc5-4)C(C)C)cc3)c2)c1 (single isomer, unassigned) [Example 10]
- MTD [1]: 6 mg/kg/day
- optimal T/C in % ([2]; 6 mg/kg/day): 11.4%
- lethality ([2]; 6 mg/kg/day): 0/5 (MTD)
- inhibition of the tumor growth (in words) [2]: effected inhibitions of the tumor growth
- IC50 (αvβ3 receptor; [3]): 20 nM
- IC50 (B16F10; mouse, 6 days): 600 nM
- MMP-2 mediated cleavage Peak area product/educt x100 (MMP-2): 16
- IC50 (HT29; human, 6 days): 100 nM
- IC50 (SW 480; human, 6 days): 70 nM

SMILES: CCCNC(=O)Nc1cccc(S(=O)(=O)Nc2cccc(C(CC(=O)O)NC(=O)Nc3ccc(NC(=S)N4CCC[C@@H]4C(=O)N[C@@H](CC(C)C)C(=O)NCC(=O)N[C@H](CSC)C(=O)N[C@H](Cc4c[nH]cn4)C(=O)N[C@@H](C(=O)O[C@@]4(CC)C(=O)OCc5c4cc4n(c5=O)Cc5cc6ccccc6nc5-4)C(C)C)cc3)c2)c1 (single isomer, unassigned) [Example 25]
- MTD [1]: 6 mg/kg/day
- optimal T/C in % ([2]; 6 mg/kg/day): 19.6%
- lethality ([2]; 6 mg/kg/day): 1/5 (MTD)
- inhibition of the tumor growth (in words) [2]: effected inhibitions of the tumor growth
- IC50 (B16F10; mouse, 6 days): 250 nM
- MMP-2 mediated cleavage Peak area product/educt x100 (MMP-2): 9
- IC50 (HT29; human, 6 days): 80 nM
- IC50 (SW 480; human, 6 days): 60 nM

SMILES: CCCNC(=O)Nc1cccc(S(=O)(=O)Nc2cccc(C(CC(=O)O)NC(=O)Nc3ccc(NC(=S)N4CCC[C@@H]4C(=O)N[C@@H](CC(C)C)C(=O)NCC(=O)N[C@H](CC(C)C)C(=O)N[C@H](Cc4c[nH]cn4)C(=O)N[C@@H](C(=O)O[C@@]4(CC)C(=O)OCc5c4cc4n(c5=O)Cc5cc6ccccc6nc5-4)C(C)C)cc3)c2)c1 (single isomer, unassigned) [Example 2]
- MTD [1]: 12 mg/kg/day
- optimal T/C in % ([2]; 6 mg/kg/day): 17.7%
- lethality ([2]; 6 mg/kg/day): 0/5
- optimal T/C in % ([2]; 12 mg/kg/day): 7.4%
- lethality ([2]; 12 mg/kg/day): 1/5 (MTD)
- inhibition of the tumor growth (in words) [2]: effected inhibitions of the tumor growth
- IC50 (αvβ3 receptor; [3]): 25 nM
- IC50 (B16F10; mouse, 6 days): 500 nM
- MMP-2 mediated cleavage Peak area product/educt x100 (MMP-2): 18
- IC50 (HT29; human, 6 days): 180 nM
- IC50 (SW 480; human, 6 days): 100 nM

SMILES: CCCNC(=O)Nc1cccc(S(=O)(=O)Nc2cccc(C(CC(=O)O)NC(=O)Nc3ccc(NC(=O)N4CCC[C@@H]4C(=O)N[C@@H](CC(C)C)C(=O)NCC(=O)N[C@H](CC(C)C)C(=O)N[C@H](CC(N)=O)C(=O)N[C@@H](C(=O)O[C@@]4(CC)C(=O)OCc5c4cc4n(c5=O)Cc5cc6ccccc6nc5-4)C(C)C)cc3)c2)c1 (stereo partly drawn) [Example 12] ({X2-CO}-[dP]LG[dL][dN][dV]-{Camptothecin(20R,20-O)})
- IC50 (αvβ3 receptor; [4]): 300 nM
- IC50 (B16F10; [5]): 150 nM
- MMP-2 mediated cleavage Peak area product/educt x100 (MMP-2): 70
- IC50 (HT29; [6]): 30 nM
- IC50 (SW 480; [7]): 40 nM

SMILES: CCCNC(=O)Nc1cccc(S(=O)(=O)Nc2cccc(C(CC(=O)O)NC(=O)Nc3ccc(NC(=O)N4CCC[C@@H]4C(=O)N[C@@H](CC(C)C)C(=O)NCC(=O)N[C@H](CC(C)C)C(=O)N[C@H](Cc4c[nH]cn4)C(=O)N[C@@H](C(=O)O[C@@]4(CC)C(=O)OCc5c4cc4n(c5=O)Cc5cc6ccccc6nc5-4)C(C)C)cc3)c2)c1 (stereo partly drawn) [Example 6] ({X2-CO}-[dP]LG[dL][dH][dV]-{Camptothecin(20R,20-O)})
- IC50 (αvβ3 receptor; [4]): 60 nM
- IC50 (B16F10; [5]): 150 nM
- MMP-2 mediated cleavage Peak area product/educt x100 (MMP-2): 33
- IC50 (HT29; [6]): 40 nM
- IC50 (SW 480; [7]): 50 nM

SMILES: CCCNC(=O)Nc1cccc(S(=O)(=O)Nc2cccc(C(CC(=O)O)NC(=O)Nc3ccc(NC(=S)N4CCC[C@@H]4C(=O)N[C@@H](CC(C)C)C(=O)NCC(=O)N[C@H](CC(C)C)C(=O)N[C@H](Cc4c[nH]cn4)C(=O)N[C@@H](C(=O)O[C@@]4(CC)C(=O)OCc5c4cc4n(c5=O)Cc5cc6ccccc6nc5-4)C(C)C)cc3)c2)c1 (single isomer, unassigned) [Example 3]
- IC50 (αvβ3 receptor; [3]): 45 nM
- IC50 (B16F10; mouse, 6 days): 600 nM
- MMP-2 mediated cleavage Peak area product/educt x100 (MMP-2): 25
- IC50 (HT29; human, 6 days): 200 nM
- IC50 (SW 480; human, 6 days): 150 nM

SMILES: CCCNC(=O)Nc1cccc(S(=O)(=O)Nc2cccc(C(CC(=O)O)NC(=O)Nc3ccc(NC(=O)NCCCC(=O)N4CCC[C@@H]4C(=O)N[C@@H](CC(C)C)C(=O)NCC(=O)N[C@H](CC(C)C)C(=O)N[C@H](Cc4c[nH]cn4)C(=O)N[C@@H](C(=O)O[C@@]4(CC)C(=O)OCc5c4cc4n(c5=O)Cc5cc6ccccc6nc5-4)C(C)C)cc3)c2)c1 (stereo partly drawn) [Example 17] ({X2-CO-GABA}-[dP]LG[dL][dH][dV]-{Camptothecin(20R,20-O)})
- IC50 (αvβ3 receptor; [4]): 50 nM
- IC50 (B16F10; [5]): 600 nM
- MMP-2 mediated cleavage Peak area product/educt x100 (MMP-2): 16
- IC50 (HT29; [6]): 100 nM
- IC50 (SW 480; [7]): 70 nM
